Source: ChEMBL document CHEMBL1124541, “Antibacterials. Synthesis and structure-activity studies of 3-aryl-2-oxooxazolidines. 1. The "B" group” (1989)
Converted amounts (≈) assume the structure as drawn.

Columns and labels:
Enterococcus faecalis [1] = assay: In vitro minimum inhibitory concentration against Enterococcus faecalis (STCO-19); type: functional
Staphylococcus aureus [2] = assay: In vitro minimum inhibitory concentration against Staphylococcus aureus (SFCO-1a); type: functional
Enterococcus faecalis [3] = test system: Enterococcus faecalis
Staphylococcus aureus [4] = test system: Staphylococcus aureus

Compound	MIC (Enterococcus faecalis [1]) [µg/mL]	MIC (Staphylococcus aureus [2]) [µg/mL]	MIC (Enterococcus faecalis [3]) [µg/mL]	MIC (Staphylococcus aureus [4]) [µg/mL]
CN[C@H](CC(C)C)C(=O)N[C@H]1C(=O)N[C@@H](CC(N)=O)C(=O)N[C@H]2C(=O)N[C@H]3C(=O)N[C@H](C(=O)N[C@H](C(=O)O)c4cc(O)cc(O)c4-c4cc3ccc4O)[C@H](O)c3ccc(c(Cl)c3)Oc3cc2cc(c3O[C@@H]2O[C@H](CO)[C@@H](O)[C@H](O)[C@H]2O[C@H]2C[C@](C)(N)[C@H](O)[C@H](C)O2)Oc2ccc(cc2Cl)[C@H]1O [VANCOMYCIN]	2 (≈ 1.38 µM)	–	–	–
COCC(=O)NC[C@H]1CN(c2ccc(C(C)=O)cc2)C(=O)O1	32 (≈ 104 µM)	32 (≈ 104 µM)	–	–
CSc1ccc(N2CC(CO)OC2=O)cc1 (stereo not given)	128 (≈ 535 µM)	128 (≈ 535 µM)	–	–
CC(=O)NCC(=O)NC[C@H]1CN(c2ccc(C(C)=O)cc2)C(=O)O1	> 128	128 (≈ 384 µM)	–	–
CCC1CN(c2ccc(S(C)(=O)=O)cc2)C(=O)O1 (stereo not given)	128 (≈ 475 µM)	128 (≈ 475 µM)	–	–
[N-]=[N+]=NCC1CN(c2ccc(S(N)(=O)=O)cc2)C(=O)O1 (stereo not given)	64 (≈ 215 µM)	32 (≈ 108 µM)	–	–
CC(=O)NCC1CN(c2ccc(S(N)(=O)=O)cc2)C(=O)O1 (stereo not given)	16 (≈ 51.1 µM)	32 (≈ 102 µM)	–	–
CC(=O)NCC1CN(c2ccc(C(C)C)cc2)C(=O)O1 (stereo not given)	4 (≈ 14.5 µM)	4 (≈ 14.5 µM)	–	–
C[S+]([O-])c1ccc(N2CC(CO)OC2=O)cc1 (stereo not given)	64 (≈ 251 µM)	64 (≈ 251 µM)	–	–
CCCC(=O)NC[C@H]1CN(c2ccc(C(C)=O)cc2)C(=O)O1	8 (≈ 26.3 µM)	8 (≈ 26.3 µM)	–	–
CC(=O)c1ccc(N2CC(CN3C(=O)c4ccccc4C3=O)OC2=O)cc1 (stereo not given)	> 128	> 128	–	–
CC(=O)c1ccc(N2CC(CN)OC2=O)cc1.Cl (stereo not given)	> 128	> 128	–	–
CC(C)c1ccc(N2CC(CN=[N+]=[N-])OC2=O)cc1 (stereo not given)	> 128	> 128	–	–
CSc1ccc(N2CC(CCl)OC2=O)cc1 (stereo not given)	> 128	> 128	–	–
CC(=O)c1ccc(N2CC(CN3CCOCC3)OC2=O)cc1 (stereo not given)	> 128	> 128	–	–
CS(=O)(=O)c1ccc(N2CC(CO)OC2=O)cc1 (stereo not given)	16 (≈ 59 µM)	16 (≈ 59 µM)	–	–
CSc1ccc(N2CC(C)OC2=O)cc1 (stereo not given)	> 128	> 128	–	–
CC1CN(c2ccc(C(C)C)cc2)C(=O)O1 (stereo not given)	128 (≈ 584 µM)	128 (≈ 584 µM)	–	–
CC(=O)c1ccc(N2C[C@H](CNC(N)=O)OC2=O)cc1	1 (≈ 3.61 µM)	4 (≈ 14.4 µM)	–	–
CC(C)c1ccc(N2CC(CO)OC2=O)cc1 (stereo not given)	32 (≈ 136 µM)	64 (≈ 272 µM)	–	–

Compound	MIC (Enterococcus faecalis [1]) [µg/mL]	MIC (Staphylococcus aureus [2]) [µg/mL]	MIC (Enterococcus faecalis [3]) [µg/mL]	MIC (Staphylococcus aureus [4]) [µg/mL]
CSc1ccc(N2CC(CNC(C)=O)OC2=O)cc1 (stereo not given)	4 (≈ 14.3 µM)	4 (≈ 14.3 µM)	–	–
CC(=O)c1ccc(N2C[C@H](CNC(=O)CC#N)OC2=O)cc1	8 (≈ 26.6 µM)	16 (≈ 53.1 µM)	–	–
CC(=O)c1ccc(N2CC(CN)OC2=O)cc1 (stereo not given)	> 128	> 128	–	–
CC(=O)c1ccc(N2CC(CF)OC2=O)cc1 (stereo not given)	128 (≈ 540 µM)	64 (≈ 270 µM)	–	–
CC(=O)OCC1CN(c2ccc(C(C)C)cc2)C(=O)O1 (stereo not given)	128 (≈ 462 µM)	128 (≈ 462 µM)	–	–
CS(=O)(=O)c1ccc(N2CC(CN)OC2=O)cc1 (stereo not given)	> 128	> 128	–	–
CC(=O)c1ccc(N2C[C@H](CNC=O)OC2=O)cc1	8 (≈ 30.5 µM)	4 (≈ 15.3 µM)	–	–
CC(=O)c1ccc(N2C[C@H](CNC(=O)C3CC3)OC2=O)cc1	4 (≈ 13.2 µM)	8 (≈ 26.5 µM)	–	–
CC(=O)NC[C@H]1CN(c2ccc(C(C)=O)cc2)C(=O)O1 [DUP-721]	1 (≈ 3.62 µM)	0.5 (≈ 1.81 µM)	–	–
CCCC(=O)OCC1CN(c2ccc(C(C)=O)cc2)C(=O)O1 (stereo not given)	> 128	64 (≈ 210 µM)	–	–
CC1=C(C(=O)O)N2C(=O)[C@@H](NC(=O)[C@H](N)c3ccccc3)[C@H]2SC1 [CEPHALEXIN ANHYDROUS]	64 (≈ 184 µM)	0.5 (≈ 1.44 µM)	–	–
CCC1CN(c2ccc(C(C)C)cc2)C(=O)O1 (stereo not given)	> 128	> 128	–	–
COC(=O)NC[C@H]1CN(c2ccc(C(C)=O)cc2)C(=O)O1	4 (≈ 13.7 µM)	4 (≈ 13.7 µM)	–	–
CC(=O)c1ccc(N2CC(CN=[N+]=[N-])OC2=O)cc1 (stereo not given)	> 128	> 128	–	–
NS(=O)(=O)c1ccc(N2CC(CCl)OC2=O)cc1 (stereo not given)	> 128	16 (≈ 55 µM)	–	–
CC(=O)c1ccc(N2CC(CCl)OC2=O)cc1 (stereo not given)	64 (≈ 252 µM)	32 (≈ 126 µM)	–	–
NS(=O)(=O)c1ccc(N2CC(CO)OC2=O)cc1 (stereo not given)	128 (≈ 470 µM)	128 (≈ 470 µM)	–	–
C=CC1CN(c2ccc(C(C)=O)cc2)C(=O)O1 (stereo not given)	> 128	> 128	–	–
CC(=O)c1ccc(N2C[C@H](CNC(=O)CSC#N)OC2=O)cc1	32 (≈ 96 µM)	32 (≈ 96 µM)	–	–
CS(=O)(=O)c1ccc(N2CC(CN=[N+]=[N-])OC2=O)cc1 (stereo not given)	8 (≈ 27 µM)	16 (≈ 54 µM)	–	–

Compound	MIC (Enterococcus faecalis [1]) [µg/mL]	MIC (Staphylococcus aureus [2]) [µg/mL]	MIC (Enterococcus faecalis [3]) [µg/mL]	MIC (Staphylococcus aureus [4]) [µg/mL]
CC(=O)c1ccc(N2CC(COP(=O)(O)O)OC2=O)cc1 (stereo not given)	> 128	> 128	–	–
COC(=O)c1nnn(CC2CN(c3ccc(C(C)=O)cc3)C(=O)O2)c1C(=O)OC (stereo not given)	> 128	> 128	–	–
CC(=O)NCC1CN(c2ccc([S+](C)[O-])cc2)C(=O)O1 (stereo not given)	4 (≈ 13.5 µM)	4 (≈ 13.5 µM)	–	–
CC(C)c1ccc(N2CC(CCl)OC2=O)cc1 (stereo not given)	64 (≈ 252 µM)	64 (≈ 252 µM)	–	–
GENTAMICIN	–	–	16	0.25
CC(=O)c1ccc(N2CC(C)OC2=O)cc1 (stereo not given)	> 128	> 128	–	–
CC(=O)c1ccc(N2C[C@H](CNC(=O)OC(C)(C)C)OC2=O)cc1	128 (≈ 383 µM)	128 (≈ 383 µM)	–	–
CC(=O)c1ccc(N2C[C@H](CNC(=O)C(C)C)OC2=O)cc1	16 (≈ 52.6 µM)	8 (≈ 26.3 µM)	–	–
CC(=O)c1ccc(N2C[C@H](CNC(=O)N(C)C)OC2=O)cc1	128 (≈ 419 µM)	128 (≈ 419 µM)	–	–
CC(=O)NCC1CN(c2ccc(S(C)(=O)=O)cc2)C(=O)O1 (stereo not given)	4 (≈ 12.8 µM)	4 (≈ 12.8 µM)	–	–
CS(=O)(=O)c1ccc(N2CC(CCl)OC2=O)cc1 (stereo not given)	4 (≈ 13.8 µM)	8 (≈ 27.6 µM)	–	–
CC1CN(c2ccc(S(C)(=O)=O)cc2)C(=O)O1 (stereo not given)	128 (≈ 501 µM)	64 (≈ 251 µM)	–	–
C[S+]([O-])c1ccc(N2CC(CCl)OC2=O)cc1 (stereo not given)	32 (≈ 117 µM)	32 (≈ 117 µM)	–	–
CCC(=O)NC[C@H]1CN(c2ccc(C(C)=O)cc2)C(=O)O1	4 (≈ 13.8 µM)	4 (≈ 13.8 µM)	–	–
CC(=O)CC(=O)NC[C@H]1CN(c2ccc(C(C)=O)cc2)C(=O)O1	16 (≈ 50.3 µM)	8 (≈ 25.1 µM)	–	–
CC(=O)c1ccc(N2C[C@H](CNC(=O)C(Cl)Cl)OC2=O)cc1	2 (≈ 5.79 µM)	2 (≈ 5.79 µM)	–	–
CC(=O)c1ccc(N2CC(COS(=O)(=O)c3ccc(C)cc3)OC2=O)cc1 (stereo not given)	8 (≈ 20.5 µM)	8 (≈ 20.5 µM)	–	–
CC(=O)c1ccc(N2CC(CO)OC2=O)cc1 (stereo not given)	16 (≈ 68 µM)	16 (≈ 68 µM)	–	–
